Measurements reported in US10577368B2 (The United States of America, as represented by the …, priority 2013, dated 2020).

Columns and labels:
hA3AR = hA3AR (Homo sapiens (Human), UniProt P0DMS8); assay: Radioligand binding at hA3AR, CHO cell membranes, [125I]I-AB-MECA
hA2AAR = hA2AAR (Homo sapiens (Human), UniProt P29274); assay: Radioligand binding at hA2AAR, HEK293 cell membranes, [3H]CGS21680; conditions: for hA2AAR % inhibition: inhibition of binding at 10 μM; for inhibition at 10 µM: read-out: hA2AAR % inhibition
[1] = test system: chronic constriction injury model of neuropathic pain; assay: CCI model of neuropathic pain, reversal of mechano-allodynia; assay type: in vivo, mice; conditions: for Time of peak protection / Effect at 3 h (% ± SEM) / Max. effect Emax (% ± SEM): 3 μmol/kg p.o., mice; for Time of peak protection / Max. effect Emax (% ± SEM): ipsilateral hind paw; for Efficacy in reversing NP in vivo (of full reversal at peak effect): CCI model
hA1AR = hA1AR (Homo sapiens (Human), UniProt P30542); assay: Radioligand binding at hA1AR, CHO cell membranes, [3H]R-PIA; conditions: for inhibition at 10 µM: read-out: hA1AR % inhibition; for hA1AR % inhibition: inhibition of binding at 10 μM
Sequence of hA1AR (P30542 whole entry): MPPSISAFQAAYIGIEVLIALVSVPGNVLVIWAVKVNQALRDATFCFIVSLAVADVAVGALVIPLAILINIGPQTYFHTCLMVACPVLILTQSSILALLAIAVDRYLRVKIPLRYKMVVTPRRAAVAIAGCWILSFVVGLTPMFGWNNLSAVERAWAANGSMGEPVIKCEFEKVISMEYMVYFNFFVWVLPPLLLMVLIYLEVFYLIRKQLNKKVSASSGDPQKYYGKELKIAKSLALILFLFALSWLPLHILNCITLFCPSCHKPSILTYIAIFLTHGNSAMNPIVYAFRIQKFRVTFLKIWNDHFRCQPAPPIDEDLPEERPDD

Sequence of hA2AAR (P29274 whole entry): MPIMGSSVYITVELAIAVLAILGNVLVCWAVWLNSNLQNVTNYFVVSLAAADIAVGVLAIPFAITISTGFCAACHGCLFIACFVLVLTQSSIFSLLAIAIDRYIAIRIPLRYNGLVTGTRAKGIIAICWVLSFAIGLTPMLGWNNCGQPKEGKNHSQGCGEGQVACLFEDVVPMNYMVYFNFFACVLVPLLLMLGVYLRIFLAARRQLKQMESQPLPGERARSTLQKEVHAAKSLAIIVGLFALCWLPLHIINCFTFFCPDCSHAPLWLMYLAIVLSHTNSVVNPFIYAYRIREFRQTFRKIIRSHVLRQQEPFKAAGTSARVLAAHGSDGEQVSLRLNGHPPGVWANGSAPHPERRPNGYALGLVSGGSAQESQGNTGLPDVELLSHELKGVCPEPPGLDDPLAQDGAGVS
Sequence of hA3AR (P0DMS8 whole entry): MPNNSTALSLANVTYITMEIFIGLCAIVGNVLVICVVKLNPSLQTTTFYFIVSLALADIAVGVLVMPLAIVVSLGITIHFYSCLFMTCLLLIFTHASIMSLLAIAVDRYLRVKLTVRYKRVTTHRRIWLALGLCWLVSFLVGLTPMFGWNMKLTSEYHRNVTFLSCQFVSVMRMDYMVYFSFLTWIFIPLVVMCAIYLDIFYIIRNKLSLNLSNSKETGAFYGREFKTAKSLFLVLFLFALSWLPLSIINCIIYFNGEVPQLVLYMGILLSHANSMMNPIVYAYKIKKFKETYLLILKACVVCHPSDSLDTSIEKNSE

Row | SMILES | Ki (hA3AR) | hA2AAR % inhibition (hA2AAR) | Time of peak protection [1] | hA1AR % inhibition (hA1AR) | Effect at 3 h (% ± SEM) [1] | Max. effect Emax (% ± SEM) [1] | other results
1 | CNC(=O)[C@]12CC1[C@@H](n1cnc3c(NC4CCC4)nc(N=[N+]=[N-])nc31)[C@H](O)C2O (some centres unmarked) [Compound 115] | 0.85 ± 0.1 nM | 46% |  |  |  |  | 
2 | CNC(=O)[C@@]12C[C@@H]1[C@@H](n1cnc3c(NC)nc(C#Cc4cccc(OC)c4)nc31)[C@H](O)[C@@H]2O [Compound 12, (1S,2R,3S,4R,5S)-2,3-Dihydroxy-4-(2-((3-methoxyphenyl)ethynyl)-6-(methylamino)-9H-purin-9-yl)-N-methylbicyclo[3.1.0]hexane-1-carboxamide] | 0.91 ± 0.07 nM |  | 0.5 to 2 h |  |  |  | inhibition at 10 µM (hA1AR): 8 ± 4%; inhibition at 10 µM (hA2AAR): 26 ± 5%
3 | CNC(=O)[C@]12CC1[C@@H](n1cnc3c(NCCc4ccccc4)nc(N=[N+]=[N-])nc31)[C@H](O)C2O (some centres unmarked) [Compound 117] | 0.85 ± 0.1 nM | 71% |  | 93% |  |  | 
4 | CNC(=O)[C@]12CC1[C@@H](n1cnc3c(NC)nc(-n4cc(-c5cc6ccccc6o5)nn4)nc31)[C@H](O)C2O (some centres unmarked) [Compound 108] | 1.25 ± 0.27 nM | 40 ± 6% | 1 h | 12 ± 7% | 8 ± 8% | 55 ± 6% | 
5 | CNC(=O)[C@]12CC1[C@@H](n1cnc3c(NC4CCC4)nc(I)nc31)[C@H](O)C2O (some centres unmarked) [Compound 118] | 1.53 ± 0.45 nM |  |  |  |  |  | Ki (hA2AAR): > 10000 nM
6 | CNC(=O)[C@@]12C[C@@H]1[C@@H](n1cnc3c(NC)nc(C#Cc4ccsc4)nc31)[C@H](O)[C@@H]2O [Compound 16, (1 S,2R,3S,4R,5S)-2,3-Dihydroxy-N-methyl-4-(6-(methylamino)-2-(thiophen-3-ylethynyl)-9H-purin-9-yl)bicyclo[3.1.0]hexane-1-carboxamide] | 0.52 ± 0.04 nM |  | 0.5 to 1 h |  |  |  | Efficacy in reversing NP in vivo (of full reversal at peak effect) [1]: diminished; inhibition at 10 µM (hA1AR): 11%; inhibition at 10 µM (hA2AAR): 3 ± 2%
7 | CNC(=O)[C@]12CC1[C@@H](n1cnc3c(NC)nc(-n4cc(-c5cnccn5)nn4)nc31)[C@H](O)C2O (some centres unmarked) [Compound 105] | 2.21 ± 0.34 nM | 8 ± 3% | 1 h | 25 ± 10% | 22 ± 7% | 78 ± 0% | 
8 | CNC(=O)[C@]12CC1[C@@H](n1cnc3cnc(C#Cc4ccccc4)nc31)[C@H](O)C2O (some centres unmarked) [Compound 402] | 1.51 ± 0.41 nM |  |  | 28 ± 4% |  |  | Ki (hA2AAR): 1200 nM
9 | CNC(=O)[C@@]12C[C@@H]1[C@@H](n1cnc3c(NC4CC4c4cccc(Br)c4)nc(C#Cc4ccccc4)nc31)[C@H](O)[C@@H]2O (mixture of isomers) [Compound 25, (1S,2R,3S,4R,5S)-4-(6-((2-(3-Bromophenyl)cyclopropyl)amino)-2-(phenylethynyl)-9H-purin-9-yl)-2,3-dihydroxy-N-methylbicyclo[3.1.0]hexane-1-carboxamide] | 14.5 ± 1 nM |  |  |  |  |  | 
10 | CNC(=O)[C@@]12C[C@@H]1[C@@H](n1cnc3c(NC4CC4c4cccc(C)c4)nc(C#Cc4ccccc4)nc31)[C@H](O)[C@@H]2O (mixture of isomers) [Compound 22, (1S,2R,3S,4R,5S)-2,3-Dihydroxy-N-methyl-4-(2-(phenylethynyl)-6-((2-(m-tolyl)cyclopropyl)amino)-9H-purin-9-yl)bicyclo[3.1.0]hexane-1-carboxamide] | 17.6 ± 1.3 nM |  |  |  |  |  | 
11 | CNC(=O)[C@]12CC1[C@@H](n1cnc3c(NC)nc(-n4cc(-c5ccccn5)nn4)nc31)[C@H](O)C2O (some centres unmarked) [Compound 103] | 1.84 ± 0.38 nM | 26 ± 2% | 1 h | 29 ± 7% | 22 ± 7% | 55 ± 6% | 
12 | CNC(=O)[C@]12CC1[C@@H](n1cnc3c(NCc4cccc(Cl)c4)nc(-n4cc(-c5ccc(Cl)s5)nn4)nc31)[C@H](O)C2O (some centres unmarked) [Compound 120] | 11.7 nM |  | 0.5 to 4 h |  | 100% | 100% | 
13 | CNC(=O)[C@]12CC1[C@@H](n1cnc3c(NC)nc(N=[N+]=[N-])nc31)[C@H](O)C2O (some centres unmarked) [Compound 113] | 0.54 ± 0.1 nM | 1 ± 1% |  |  |  |  | 
14 | CNC(=O)[C@@]12C[C@@H]1[C@@H](n1cnc3c(NC4CC4c4ccc(F)c(F)c4)nc(C#Cc4ccccc4)nc31)[C@H](O)[C@@H]2O (mixture of isomers) [Compound 26, (1 S,2R,3S,4R,5S)-4-(6-((2-(3,4-Difluorophenyl)cyclopropyl)amino)-2-(phenylethynyl)-9H-purin-9-yl)-2,3-dihydroxy-N-methylbicyclo[3.1.0]hexane-1-carboxamide] | 20.2 ± 2.1 nM |  |  |  |  |  | 
15 | CNC(=O)[C@]12CC1[C@@H](n1cnc3c(NC)nc(-n4cc(-c5ncccn5)nn4)nc31)[C@H](O)C2O (some centres unmarked) [Compound 104] | 3.48 ± 0.97 nM | 27 ± 3% | 1 h | 14 ± 7% | 39 ± 10% | 89 ± 11% | 
16 | CCNc1nc(I)nc2c1ncn2[C@@H]1C2C[C@]2(C(=O)NC)C(O)[C@H]1O (some centres unmarked) [Compound 122] | 1.22 ± 0.21 nM | 11 ± 7% |  |  |  |  | 
17 | CNC(=O)[C@@]12C[C@@H]1[C@@H](n1cnc3c(NC)nc(C#Cc4ccc(OC)cc4)nc31)[C@H](O)[C@@H]2O [Compound 11, (1S,2R,3S,4R,5S)-2,3-Dihydroxy-4-(2-((4-methoxyphenyl)ethynyl)-6-(methylamino)-9H-purin-9-yl)-N-methylbicyclo[3.1.0]hexane-1-carboxamide] | 0.63 ± 0.07 nM |  | 0.5 to 1 h |  |  |  | inhibition at 10 µM (hA1AR): 10%; inhibition at 10 µM (hA2AAR): 24 ± 8%
18 | CNC(=O)[C@]12CC1[C@@H](n1cnc3c(NCCc4ccccc4)nc(-n4cc(-c5ccc(Cl)s5)nn4)nc31)[C@H](O)C2O (some centres unmarked) [Compound 121] | 6.66 ± 2.07 nM |  | 0.5 to 3 h | 58% | 80% | 90% | 
19 | CNC(=O)[C@]12CC1[C@@H](n1cnc3c(NC)nc(-n4cc(-c5ccc(Br)s5)nn4)nc31)[C@H](O)C2O (some centres unmarked) [Compound 111] | 0.58 ± 0.17 nM | 7 ± 6% | 1 h |  | 14 ± 2% | 69 ± 9% | 
20 | CNC(=O)[C@@]12C[C@@H]1[C@@H](n1cnc3c(NC4CC4c4cccc(Cl)c4)nc(C#Cc4ccccc4)nc31)[C@H](O)[C@@H]2O (mixture of isomers) [Compound 24, (1S,2R,3S,4R,5S)-4-(6-((2-(3-Chlorophenyl)cyclopropyl)amino)-2-(phenylethynyl)-9H-purin-9-yl)-2,3-dihydroxy-N-methylbicyclo[3.1.0]hexane-1-carboxamide] | 11.2 ± 4.2 nM |  |  |  |  |  | 
21 | CNC(=O)[C@]12CC1[C@@H](n1cnc3c(NC)nc(C#Cc4ccccc4)nc31)[C@H](O)C2O (some centres unmarked) [Compound 400, reference compound] |  | (14% ± 7%) | 0.5 to 1 h | (18% ± 8%) | 5.0 ± 5.0% | 44.1 ± 9.9% | Efficacy in reversing NP in vivo (of full reversal at peak effect) [1]: ~30%
22 | CNC(=O)[C@]12CC1[C@@H](n1cnc3c(NC4CCC4)nc(-n4cc(-c5ccc(Cl)s5)nn4)nc31)[C@H](O)C2O (some centres unmarked) [Compound 125] | 7.13 nM |  | 0.5 to 3 h |  | 90% | 100% | 
23 | CCNc1nc(N=[N+]=[N-])nc2c1ncn2[C@@H]1C2C[C@]2(C(=O)NC)C(O)[C@H]1O (some centres unmarked) [Compound 123] | 0.6 ± 0.08 nM | 11 ± 6% |  |  |  |  | 
24 | CNC(=O)[C@]12CC1[C@@H](n1cnc3c(NCCc4ccccc4)nc(I)nc31)[C@H](O)C2O (some centres unmarked) [Compound 119] | 0.91 ± 0.14 nM |  |  | 68% |  |  | 
25 | CNC(=O)[C@]12CC1[C@@H](n1cnc3c(NCc4cccc(Cl)c4)nc(N=[N+]=[N-])nc31)[C@H](O)C2O (some centres unmarked) [Compound 124] | 1.08 ± 0.75 nM |  |  |  |  |  | Ki (hA2AAR): 2770 nM
26 | CNC(=O)[C@]12CC1[C@@H](n1cnc3c(NC)nc(-n4cc(-c5ccco5)nn4)nc31)[C@H](O)C2O (some centres unmarked) [Compound 107] | 0.96 ± 0.09 nM | 51 ± 1% | 1 h |  | 21 ± 7% | 65 ± 8% | 
27 | CNC(=O)[C@]12CC1[C@@H](n1cnc3c(NC)nc(I)nc31)[C@H](O)C2O (some centres unmarked) [Compound 114] | 1.91 ± 0.85 nM |  |  |  |  |  | 
28 | CNC(=O)[C@@]12C[C@@H]1[C@@H](n1cnc3c(NC4CC4c4cccc(F)c4)nc(C#Cc4ccccc4)nc31)[C@H](O)[C@@H]2O (mixture of isomers) [Compound 23, (1S,2R,3S,4R,5S)-4-(6-((2-(3-Fluorophenyl)cyclopropyl)amino)-2-(phenylethynyl)-9H-purin-9-yl)-2,3-dihydroxy-N-methylbicyclo[3.1.0]hexane-1-carboxamide] | 16.5 ± 1.9 nM |  |  |  |  |  | inhibition at 10 µM (hA2AAR): 1%
29 | CNC(=O)[C@@]12C[C@@H]1[C@@H](n1cnc3c(NC)nc(C#Cc4cc(C)c(C)o4)nc31)[C@H](O)[C@@H]2O [Compound 29, (1S,2R,3S,4R,5S)-4-(2-((4,5-Dimethylfuran-2-yl)ethynyl)-6-(methylamino)-9H-purin-9-yl)-2,3-dihydroxy-N-methylbicyclo[3.1.0]hexane-1-carboxamide] |  |  | 1 h |  |  |  | inhibition at 10 µM (hA1AR): 15%; inhibition at 10 µM (hA2AAR): 21 ± 3%
30 | CNC(=O)[C@@]12C[C@@H]1[C@@H](n1cnc3c(NC)nc(C#CC4CCCCC4)nc31)[C@H](O)[C@@H]2O [Compound 19, (1S,2R,3S,4R,5S)-4-(2-(Cyclohexylethynyl)-6-(methylamino)-9H-purin-9-yl)-2,3-dihydroxy-N-methylbicyclo[3.1.0]hexane-1-carboxamide] |  |  | 1 to 2 h |  |  | 64.1 ± 10.5% | Efficacy in reversing NP in vivo (of full reversal at peak effect) [1]: 60-70%; inhibition at 10 µM (hA1AR): 15%; inhibition at 10 µM (hA2AAR): 45 ± 6%
